According to the supplement of paper PMC10307832:

What was measured:
Experiment in all cases: relative viability (nuclei count vs DMSO), 5 days (fraction); higher = more cells survive
Serdemetan + Linsitinib = compound: c1ccc2c(CCNc3ccc(Nc4ccncc4)cc3)c[nH]c2c1 [Serdemetan] + C[C@]1(O)C[C@@H](c2nc(-c3ccc4ccc(-c5ccccc5)nc4c3)c3c(N)nccn32)C1 [Linsitinib] (partner 1 µM)
Summary of the method: (§1)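 Lung cancer cell lines, seeded in 1536-well plates, were treated the following day by pin tool with a single drug or with five library-drug doses (not always all listed) in √10 steps on top of a fixed anchor-drug dose. Cells were fixed and nuclei stained in one step after 5 days, and nuclei were counted. Relative viability is the nuclei count for treated wells divided by that for vehicle wells, reported as medians of duplicate plates.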

Serdemetan + Palbociclib = compound: c1ccc2c(CCNc3ccc(Nc4ccncc4)cc3)c[nH]c2c1 [Serdemetan] + CC(=O)c1c(C)c2cnc(Nc3ccc(N4CCNCC4)cn3)nc2n(C2CCCC2)c1=O [Palbociclib] (partner 0.5 µM)
Summary of the method: as §1

Selisistat + Tozasertib = compound: C1CC(C2=C(C1)C3=C(N2)C=CC(=C3)Cl)C(=O)N [Selisistat] + Cc1cc(Nc2cc(N3CCN(C)CC3)nc(Sc3ccc(NC(=O)C4CC4)cc3)n2)n[nH]1 [Tozasertib] (partner 0.1 µM)
Summary of the method: as §1

Serdemetan + Navitoclax = compound: c1ccc2c(CCNc3ccc(Nc4ccncc4)cc3)c[nH]c2c1 [Serdemetan] + CC1(C)CCC(c2ccc(Cl)cc2)=C(CN2CCN(c3ccc(C(=O)NS(=O)(=O)c4ccc(N[C@H](CCN5CCOCC5)CSc5ccccc5)c(S(=O)(=O)C(F)(F)F)c4)cc3)CC2)C1 [Navitoclax] (partner 0.5 µM)
Summary of the method: as §1

Cell Line	relative viability (Serdemetan + Linsitinib; first compound 0.04 µM)	relative viability (Serdemetan + Linsitinib; first compound 0.1265 µM)	relative viability (Serdemetan + Linsitinib; first compound 0.4 µM)	relative viability (Serdemetan + Linsitinib; first compound 1.265 µM)	relative viability (Serdemetan + Linsitinib; first compound 4 µM)	relative viability (Serdemetan + Palbociclib; first compound 0.04 µM)	relative viability (Serdemetan + Palbociclib; first compound 0.1265 µM)	relative viability (Serdemetan + Palbociclib; first compound 0.4 µM)	relative viability (Serdemetan + Palbociclib; first compound 1.265 µM)	relative viability (Serdemetan + Palbociclib; first compound 4 µM)	relative viability (Selisistat + Tozasertib; first compound 0.4 µM)	relative viability (Selisistat + Tozasertib; first compound 1.265 µM)	relative viability (Selisistat + Tozasertib; first compound 4 µM)	relative viability (Selisistat + Tozasertib; first compound 12.65 µM)	relative viability (Selisistat + Tozasertib; first compound 40 µM)	relative viability (Serdemetan + Navitoclax; first compound 0.04 µM)	relative viability (Serdemetan + Navitoclax; first compound 0.1265 µM)	relative viability (Serdemetan + Navitoclax; first compound 0.4 µM)	relative viability (Serdemetan + Navitoclax; first compound 1.265 µM)	relative viability (Serdemetan + Navitoclax; first compound 4 µM)
COR-L23	0.906	0.752	0.891	0.688	0.788	0.235	0.3	0.349	0.213	0.236	0.243	0.241	0.218	0.171	0.183	1.03	1	1.07	0.939	0.81
NCI-H2087	0.907	0.842	0.945	0.608	0.505	0.28	0.255	0.236	0.147	0.215	0.247	0.236	–	0.164	0.272	1.05	1	0.715	0.467	0.64
LC-2-ad	0.908	0.805	0.857	–	0.722	0.438	0.449	0.507	0.471	0.44	0.535	–	0.378	0.433	0.529	0.5	0.418	0.427	–	0.293
NCI-H1915	1.03	1.08	1.08	0.975	0.908	0.483	0.52	0.482	0.434	0.39	0.436	0.41	0.374	0.339	0.41	0.815	0.759	0.78	0.372	0.687
NCI-H1793	0.978	0.834	0.574	0.525	0.336	0.355	0.325	0.308	0.242	0.271	0.324	0.395	–	0.326	0.582	0.337	0.408	0.39	0.349	0.263
NCI-H2023	0.708	0.766	0.613	0.601	0.253	0.355	0.328	0.341	0.263	0.215	0.417	0.34	0.286	0.263	0.307	0.929	1.05	0.99	0.682	0.344
COR-L 105	0.86	1.14	0.847	1.04	0.845	0.4	0.403	0.359	0.297	0.411	0.344	0.344	–	0.315	0.336	0.708	0.871	0.596	0.771	0.722
RERF-LC-KJ	0.869	0.851	0.857	0.745	0.727	1.06	0.962	0.975	1.04	0.824	0.662	0.46	0.519	0.403	0.371	1.15	0.842	1.06	0.805	0.983
LXF-289	0.953	0.95	0.863	0.785	0.765	0.544	0.542	0.527	0.524	0.381	0.18	0.162	0.2	0.179	0.237	0.931	0.927	0.884	0.759	0.749
PC-14	0.901	0.952	0.909	0.78	0.805	0.546	0.546	–	0.467	0.346	0.649	0.563	0.522	0.581	0.656	0.977	0.974	0.954	0.923	0.697
NCI-H1666	0.944	0.85	0.761	0.784	0.724	0.645	0.655	0.63	–	0.66	0.631	0.591	0.594	0.589	0.541	0.913	0.941	0.877	0.726	0.83
NCI-H2085	0.939	0.901	0.836	0.621	0.581	0.46	0.457	0.466	0.382	0.342	0.852	0.779	0.697	0.805	0.806	1.16	1.01	1.04	0.815	0.685
NCI-H1734	0.702	–	0.299	0.182	0.194	0.296	0.23	0.229	0.166	0.212	0.278	0.265	0.283	0.263	0.228	0.68	–	0.202	0.108	0.188
NCI-H2126	0.745	0.736	0.638	0.642	0.686	0.356	0.379	0.349	0.329	0.354	0.852	0.819	0.825	0.841	0.867	0.841	0.869	0.795	0.704	0.825
EMC-BAC-2	0.802	0.753	0.787	0.755	0.613	0.508	0.523	0.493	0.479	0.463	0.302	0.286	0.404	0.281	0.257	1.14	1.14	1.1	1.09	0.745
NCI-H1993	0.688	0.648	0.677	–	0.713	0.64	0.603	0.736	0.699	0.569	0.58	0.579	0.57	0.569	0.539	0.952	0.92	0.78	–	0.875
NCI-H520	0.973	1.02	0.817	0.808	0.774	0.261	0.215	0.252	0.179	0.193	0.387	0.472	0.488	0.415	0.451	1	1.09	1.07	0.762	0.924

Cell Line	relative viability (Serdemetan + Linsitinib; first compound 0.04 µM)	relative viability (Serdemetan + Linsitinib; first compound 0.1265 µM)	relative viability (Serdemetan + Linsitinib; first compound 0.4 µM)	relative viability (Serdemetan + Linsitinib; first compound 1.265 µM)	relative viability (Serdemetan + Linsitinib; first compound 4 µM)	relative viability (Serdemetan + Palbociclib; first compound 0.04 µM)	relative viability (Serdemetan + Palbociclib; first compound 0.1265 µM)	relative viability (Serdemetan + Palbociclib; first compound 0.4 µM)	relative viability (Serdemetan + Palbociclib; first compound 1.265 µM)	relative viability (Serdemetan + Palbociclib; first compound 4 µM)	relative viability (Selisistat + Tozasertib; first compound 0.4 µM)	relative viability (Selisistat + Tozasertib; first compound 1.265 µM)	relative viability (Selisistat + Tozasertib; first compound 4 µM)	relative viability (Selisistat + Tozasertib; first compound 12.65 µM)	relative viability (Selisistat + Tozasertib; first compound 40 µM)	relative viability (Serdemetan + Navitoclax; first compound 0.04 µM)	relative viability (Serdemetan + Navitoclax; first compound 0.1265 µM)	relative viability (Serdemetan + Navitoclax; first compound 0.4 µM)	relative viability (Serdemetan + Navitoclax; first compound 1.265 µM)	relative viability (Serdemetan + Navitoclax; first compound 4 µM)
NCI-H647	1.06	1.11	1.11	0.944	0.982	0.374	0.332	0.528	0.322	0.243	0.227	0.322	0.44	0.29	0.343	1.06	1.14	1.06	0.844	0.83
SK-LU-1	1.13	1.14	1.07	1.03	0.732	0.37	0.393	0.365	0.319	0.346	0.365	0.329	0.302	0.32	0.314	0.809	0.971	0.853	0.705	0.639
NCI-H2009	1.18	1.2	1.13	1	0.979	0.238	0.227	0.258	0.162	0.193	0.743	0.734	0.765	0.694	0.744	1.11	1.12	1.17	1.06	1.01
LOU-NH91	0.962	1.01	–	0.894	0.83	0.518	0.515	–	–	0.563	0.784	0.626	0.598	0.703	0.673	0.696	0.74	–	0.534	0.581
NCI-H2405	0.864	0.997	0.964	0.897	0.628	0.479	0.515	0.549	0.466	0.52	0.784	0.752	0.719	0.763	0.722	0.813	1.03	1.01	0.921	0.721
LCLC-97TM1	0.211	0.172	0.186	0.12	0.181	0.228	0.224	0.22	0.134	0.16	0.207	0.216	–	0.231	0.212	0.472	0.32	0.278	0.364	0.377
NCI-H727	0.286	0.238	0.28	0.124	0.191	0.351	0.638	0.604	0.722	0.644	0.681	0.518	–	0.483	0.69	0.511	0.354	0.391	0.231	0.226
H3255	0.938	0.832	0.931	1.03	0.814	0.327	0.333	0.346	0.286	0.342	0.624	0.772	0.589	0.657	0.717	0.437	0.538	0.485	0.362	0.404
SK-MES-1	0.964	1.2	1.03	0.796	0.674	0.271	0.309	0.285	0.302	0.325	0.977	0.869	0.954	0.829	0.948	1.21	1.24	1.25	0.917	0.551
NCI-H1437	0.993	1.02	0.975	0.861	0.687	0.289	0.32	0.334	0.359	0.315	0.426	0.398	0.339	0.369	0.369	1.06	1.01	0.99	0.98	0.754
LU99A	0.501	0.481	0.421	0.158	0.162	0.431	0.371	0.308	0.203	0.22	0.298	0.249	0.319	0.313	0.281	0.803	0.842	0.712	0.251	0.26
HCC-827	0.892	0.9	–	0.689	0.762	0.454	0.448	–	0.412	0.303	0.418	0.429	0.444	0.389	0.392	1.02	0.941	–	0.787	0.753
LK-2	0.48	0.545	0.527	0.49	0.491	0.69	0.704	0.778	0.517	0.496	0.155	0.189	0.197	0.176	0.18	0.918	0.889	1.2	0.953	0.746
HCC-366	0.731	0.317	0.244	0.0612	0.0456	0.351	0.281	0.0795	0.0413	0.0782	0.0912	0.131	0.064	0.0918	0.0529	1.03	0.981	0.522	0.0806	0.0474
BEN	0.857	0.929	0.956	0.875	0.679	0.513	0.494	0.504	0.365	0.449	0.55	0.406	0.385	0.505	0.471	0.0749	0.0626	0.0845	0.0724	0.0676
NCI-H23	0.571	0.684	0.747	0.504	0.561	0.474	0.472	0.461	–	0.437	0.377	0.384	0.319	0.33	0.295	0.887	0.848	0.996	0.809	0.623
